Test results from US10968214B2, “KRas G12C inhibitors” (Eli Lilly and Company, priority 2018, dated 2021).
Several values for one entry are separate records, joined by “and”; a condition that tells them apart may be missing. Equal entries are not always repeated. Where two headings read alike, the source gives them in different places. Blank lines part the entries; values can stand above or below the compound they belong to.

How the values were obtained:
SW837 xenograft = assay: Anti-tumor growth activity, SW837 colorectal xenograft; format: in vivo; conditions: Abemaciclib 50 mg/kg QDx28
H2122 = assay: Combination 4 day growth assay (Cell TiterGlo), H2122; format: cell-based; conditions: Homo sapiens, NCI-H2122, 96 h, single treatment, read-out: Absolute IC50
Procedure: (§1) Cell lines for this study are obtained from ATCC and grown under ATCC recommended conditions, except for LXFA-983L, which is obtained from Oncotest/Charles Rivers Laboratories, Wilmington, Mass. and D122-96, which is obtained from L. Eisenbach (Weizman Institute of Science, Rehovot, Israel)—both grown under recommended conditions. […] The proliferation assay is performed as a 4 day growth assay using Cell TiterGlo® as the readout. Briefly, cells are plated in 96-well cell culture plates and allowed to adhere overnight at 37° C. The following day, cells are treated with compounds, either single treatments or combination treatments. First, the testing compounds are serially diluted in DMSO, followed by dilution into media as a 5× concentration with 1% DMSO, and finally added to cells in media to dilute to 1×. The cells are incubated at 37° C. for 4 more days. At the end of the incubation period, Cell TiterGlo® reagent is mixed and added to the wells. After 10 minutes, the luminescence is read by a Perkin Elmer Envision instrument. Absolute IC50 values generated by a 4-parameter logistics model for the single and combination treatments are generated, followed by combination indexes for each combination treatment and cell line. The combination IC50 values are adjusted based on the total concentration of each compound when added together. […] The combination index (CI) measures the degree to which the potency of a combination therapy differs from the expected-if-additive potency and is based on the Loewe definition of additivity.
(§2) [formula] Where • CAy and CBy are the concentrations of therapies A and B that produce an effect, y, when given in combination • ICAy and ICBy are the concentrations of A and B that produce an effect, y, when given individually The biological interpretation of the combination index is as follows: synergistic if the combination index <0.5, additive if the combination index is between 0.5 and 2, and antagonistic if the combination index is >2.

H23 = assay: Combination 4 day growth assay (Cell TiterGlo), H23; format: cell-based; conditions: Homo sapiens, NCI-H23, 96 h, single treatment, read-out: Absolute IC50
Procedure: as §1, §2

D122-96 = assay: Combination 4 day growth assay (Cell TiterGlo), D122-96; format: cell-based; conditions: Mus musculus, 96 h, single treatment, read-out: Absolute IC50
Procedure: as §1, §2

SW1573 = assay: Combination 4 day growth assay (Cell TiterGlo), SW1573; format: cell-based; conditions: Homo sapiens, 96 h, single treatment, read-out: Absolute IC50
Procedure: as §1, §2

H2122 xenograft = assay: Anti-tumor growth activity, lung cancer H2122 xenograft mouse model; format: in vivo; conditions: H2122 Lung; Abemaciclib 50 mg/kg QDx28
Procedure: To evaluate in vivo target inhibition and anti-tumor efficacy of a compound, Human lung cancer cells, H358 or H2122 are implanted into nude mice xenograft tumor models. Either H358 or H2122 cells (10×10^6 in a 1:1 Matrigel® mix, 0.2 mL total volume) are implanted by subcutaneous injection in hind leg of nude female mice (Harlan Laboratories). A total of 5 mice each group are used for efficacy study, and a total of 3-4 mice each group are used for target engagement and PD study. Treatment is initiated with oral administration (gavage) of a test compound or vehicle (20% Captisol®, 25 mM phosphate, pH 2.0 in 0.2 mL volume when the tumor size reaches approximately […]. Tumor growth and body weight are monitored over time to evaluate efficacy and signs of toxicity. Bidimensional measurements of tumors are performed twice a week and tumor volumes are calculated based on mid-axis length and mid-axis width. Tumor volume data are transformed to a log scale to equalize variance across time and treatment groups. The log volume data are analyzed with a two-way repeated measures analysis of variance by time and treatment using the mixed procedures in SAS software (version 8.2). The correlation model for the repeated measures is spatial power. Treated groups are compared to the control group at each time point. The mixed procedure is also used separately for each treatment group to calculate adjusted means and standard errors at each time point. Both analyses account for the autocorrelation within each animal. The adjusted means and standard errors are plotted for each treatment group versus time.
H2122 lung tumor cells (10×10^6) are implanted by subcutaneous injection in hind leg of nude female mice (Taconic Biosciences). A total of 5 mice each group are used for efficacy study.

H2030 = assay: Combination 4 day growth assay (Cell TiterGlo), H2030; format: cell-based; conditions: Homo sapiens, NCI-H2030, 96 h, single treatment, read-out: Absolute IC50
Procedure: (§3) Cell lines for this study are obtained from ATCC and grown under ATCC recommended conditions, except for LXFA-983L, which is obtained from Oncotest/Charles Rivers Laboratories, Wilmington, Mass. and D122-96, which is obtained from L. Eisenbach (Weizman Institute of Science, Rehovot, Israel)—both grown under recommended conditions. […] The proliferation assay is performed as a 4 day growth assay using Cell TiterGlo® as the readout. Briefly, cells are plated in 96-well cell culture plates and allowed to adhere overnight at 37° C. The following day, cells are treated with compounds, either single treatments or combination treatments. First, the testing compounds are serially diluted in DMSO, followed by dilution into media as a 5× concentration with 1% DMSO, and finally added to cells in media to dilute to 1×. The cells are incubated at 37° C. for 4 more days. At the end of the incubation period, Cell TiterGlo® reagent is mixed and added to the wells. After 10 minutes, the luminescence is read by a Perkin Elmer Envision instrument. Absolute IC50 values generated by a 4-parameter logistics model for the single and combination treatments are generated, followed by combination indexes for each combination treatment and cell line. The combination IC50 values are adjusted based on the total concentration of each compound when added together. […]

LXFA-983L = assay: Combination 4 day growth assay (Cell TiterGlo), LXFA-983L; format: cell-based; conditions: 96 h, single treatment, read-out: Absolute IC50
Procedure: as §1, §2

SW1463 = assay: Combination 4 day growth assay (Cell TiterGlo), SW1463; format: cell-based; conditions: Homo sapiens, single treatment, read-out: Absolute IC50
Procedure: as §1, §2

SW1463 xenograft = assay: Anti-tumor growth activity, SW1463 colorectal xenograft; format: in vivo; conditions: Abemaciclib 50 mg/kg QDx28
SW756 = assay: Combination 4 day growth assay (Cell TiterGlo), SW756; format: cell-based; conditions: Homo sapiens, single treatment, read-out: Absolute IC50
Procedure: as §3

H358 = assay: Combination 4 day growth assay (Cell TiterGlo), H358; format: cell-based; conditions: Homo sapiens, NCI-H358, 96 h, single treatment, read-out: Absolute IC50
Procedure: as §1, §2

H1792 = assay: Combination 4 day growth assay (Cell TiterGlo), H1792; format: cell-based; conditions: Homo sapiens, NCI-H1792, 96 h, single treatment, read-out: Absolute IC50
Procedure: as §3

UM-UC-3 = assay: Combination 4 day growth assay (Cell TiterGlo), UM-UC-3; format: cell-based; conditions: Homo sapiens, UMUC3, 96 h, single treatment, read-out: Absolute IC50
Procedure: as §1, §2

H1373 = assay: Combination 4 day growth assay (Cell TiterGlo), H1373; format: cell-based; conditions: Homo sapiens, NCI-H1373, 96 h, single treatment, read-out: Absolute IC50
Procedure: as §3

MiaPaca-2 xenograft = assay: Anti-tumor growth activity, MiaPaca-2 pancreatic xenograft; format: in vivo; conditions: Abemaciclib 50 mg/kg QDx28
Calu-1 = assay: Combination 4 day growth assay (Cell TiterGlo), Calu-1; format: cell-based; conditions: Homo sapiens, single treatment, read-out: Absolute IC50
Procedure: as §1, §2

MIA Paca-2 = assay: Combination 4 day growth assay (Cell TiterGlo), MIA Paca-2; format: cell-based; conditions: Homo sapiens, single treatment, read-out: Absolute IC50
Procedure: as §1, §2

SW837 = assay: Combination 4 day growth assay (Cell TiterGlo), SW837; format: cell-based; conditions: Homo sapiens, single treatment, read-out: Absolute IC50
Procedure: as §1, §2

Kyse-410 = assay: Combination 4 day growth assay (Cell TiterGlo), KYSE-410; format: cell-based; conditions: Homo sapiens, single treatment, read-out: Absolute IC50
Procedure: as §3

EL3187 (PDX) = assay: Anti-tumor growth activity, EL3187 lung PDX; format: in vivo; conditions: EL3187 Lung PDX; Erlotinib 25 mg/kg QDx28

IC50 (H2122): 548 nM | IC50 (SW1573): 996 nM | IC50 (H2030): 9030 nM | IC50 (SW1463; 96 h): 328 nM | IC50 (SW756; 96 h): 4980 nM | IC50 (H358): 1230 nM | IC50 (H1792): 1100 nM | IC50 (H1373): > 10000 nM | IC50 (Calu-1; 96 h): > 10000 nM | IC50 (MIA Paca-2; 96 h): 755 nM | IC50 (SW837; 96 h): 3590 nM
Compound: CCN1CCN(Cc2ccc(Nc3ncc(F)c(-c4cc(F)c5nc(C)n(C(C)C)c5c4)n3)nc2)CC1 [Abemaciclib, abemaciclib]
In Vivo Anti-Tumor Activities (SW837 xenograft): −2.13 | IC50 (H23): 4970 nM | IC50 (D122-96): 5050 nM | Tumor Growth Inhibition (%) or Regression (−%) (H2122 xenograft): 79.3 and 79.1 | IC50 (LXFA-983L): > 10000 nM | In Vivo Anti-Tumor Activities (SW1463 xenograft): 55.1 | IC50 (UM-UC-3): 1720 nM | In Vivo Anti-Tumor Activities (MiaPaca-2 xenograft): 46.88 | IC50 (Kyse-410; 96 h): 3010 nM

IC50 (H2122): 352 nM | IC50 (SW1573): > 10000 nM | IC50 (H2030): 1480 nM | IC50 (SW1463; SW1463, 96 h): 446 nM | IC50 (SW756; SW756, 96 h): > 10000 nM | IC50 (H358): 247 nM | IC50 (H1792): > 10000 nM | IC50 (H1373): > 10000 nM | IC50 (Calu-1; Calu-1, 96 h): > 10000 nM | IC50 (MIA Paca-2; MIA PaCa-2, 96 h): > 10000 nM | IC50 (SW837; SW837, 96 h): > 10000 nM
Compound: C#Cc1cccc(Nc2ncnc3cc(OCCOC)c(OCCOC)cc23)c1 [Erlotinib, erlotinib]
IC50 (H23): > 10000 nM | IC50 (D122-96): > 10000 nM | In Vivo Anti-Tumor Activities (EL3187 (PDX)): 7.8 | IC50 (LXFA-983L; LXFA 983L): 2820 nM | IC50 (UM-UC-3): > 10000 nM | IC50 (Kyse-410; KYSE-410, 96 h): 469 nM
